From PMC7674646, “Structural and Functional Analyses of the Transcription Repressor DgoR From Escherichia coli Reveal a Divalent Metal-Containing D-Galactonate Binding Pocket” (Frontiers in Microbiology, 2020)
“And” between values parts separate entries of the source, which are not always exact repeats. Identical values can stand only once.

Assays:
[1] = target: EcoDgoR / dgo cis-acting element (Escherichia coli, UniProt P31460); assay: EMSA of WT EcoDgoR with dgo cis-acting element; assay type: biochemical; details: for effect on stability of EcoDgoR/DNA complex (EMSA): EDTA-treated EcoDgoR, 0.5 mM sugar plus divalent metal cation (Zn2+, Ca2+ or Mg2+); for effect on EcoDgoR/DNA complex (EMSA): EcoDgoR pre-incubated with 5 mM EDTA, sugar alone (0.5 mM), no metal added; for effect on DNA bound by EcoDgoR (EMSA): WT EcoDgoR, 0.5 mM sugar
Source text: (§1) For expression of the recombinant DgoR mutants (i.e., R102A, D146A, H150A, Q173A, R179A, W181A, D184A, T191A, H195A, S221A, R224A, and R224E), the wild-type E. coli dgoR gene on the expression plasmid pET28a was mutated using the site-directed mutagenesis method. The dgo cis-acting element region of E. coli K12 was generated by PCR and subsequently inserted into the HincII site of pUC18. The obtained plasmid was used as the template for preparation of the Cy5-labeled probes using the universal primer pair of Cy5-labeled dgoRcis-acting_F and dgoRcis-acting_R. Cy5-labeled probe (100 ng) was incubated with different amounts of dgoR or its mutants at 25°C for 20 min in a buffer comprising of 25 mM Tris-HCl (pH 8.0), 50 mM KCl, 2.5 mM MgCl2, 5% glycerol, 1 mM dithiothreitol (DTT), and 100 μg/mL sonicated salmon sperm DNA (Sangon) (total volume 20 μl). The resulting DNA-protein complexes were subjected to electrophoresis on native PAGE gels at 100 V, 4°C for 2.5 h in a running buffer containing 25 mM Tris-HCl (pH 7.8) and 250 mM glycine. After electrophoresis, gels were directly scanned for fluorescent DNAs using an ImageQuantTM LAS 4000 system (GE Healthcare). For EMSAs in the presence or absence of D-galactonate or D-glucose, 0.5 mM D-galactonate or D-glucose was applied.

[2] = target: EcoDgoR W181A / dgo cis-acting element (Escherichia coli, UniProt P31460, W181A); assay: EMSA of EcoDgoR W181A with dgo cis-acting element; assay type: biochemical; details: presence vs absence of 0.5 mM D-galactonate
Source text: as §1

EcoDgoR R224A = EcoDgoR R224A (Escherichia coli, UniProt P31460, R224A); assay: MST binding assay, EcoDgoR R224A mutant
Experimental: (§2) His-tagged DgoR and its derivatives were labeled with the NT-647-NHS dye using the Monolith NT^TM Protein Labeling Kit RED-NHS (NanoTemper Technologies) ([Magnez et al., 2017]; [Welsch et al., 2017]). Serially diluted unlabeled proteins and 100 nM of labeled DgoR or its derivatives were incubated for 15 min at room temperature in binding buffer (1.8 mM KH2PO4, 10 mM Na2HPO4, 137 mM NaCl, 2.7 mM KCl, and 0.05% Tween-20, pH 7.8) in a final volume of 20 μL. Subsequently, samples were loaded into NT.115 premium coated capillaries (NanoTemper Technologies). Binding experiments were performed using a Monolith NT.115 Pico apparatus (NanoTemper Technologies) with the following parameters: LED power 5 %, MST Power high. MST traces were analyzed between 4.00 and 5.00 s after turning on the IR-Laser. Measurements were carried out with D-galactonate. For each experiment, the unlabeled proteins were produced from independent preparations. Results were obtained with the MO Control software version 1.6. MO Affinity Analysis software version 2.3 was used to determine the fraction of the formed complex. Apparent dissociation constants (Kd) were calculated using nonlinear fitting assuming one specific binding site with the GraphPad Prism 7 software with the following formula
(§3) (whereBisMaxthemaximumtheoreticalspecificbinding,hereB=Max1).

EcoDgoR H150A = EcoDgoR H150A (Escherichia coli, UniProt P31460, H150A); assay: MST binding assay, EcoDgoR H150A mutant
Experimental: as §2, §3

[3] = target: EcoDgoR H150A / dgo cis-acting element (Escherichia coli, UniProt P31460, H150A); assay: EMSA of EcoDgoR H150A with dgo cis-acting element; assay type: biochemical; details: 0.5 mM D-galactonate
Source text: as §1

[4] = target: EcoDgoR T191A / dgo cis-acting element (Escherichia coli, UniProt P31460, T191A); assay: EMSA of EcoDgoR T191A with dgo cis-acting element; assay type: biochemical; details: T191A 8 μM, 0.5 mM D-galactonate
Source text: as §1

[5] = target: EcoDgoR R224E / dgo cis-acting element (Escherichia coli, UniProt P31460, R224E); assay: EMSA of EcoDgoR R224E with dgo cis-acting element; assay type: biochemical; details: 0.5 mM D-galactonate
Source text: as §1

EcoDgoR T191A = EcoDgoR T191A (Escherichia coli, UniProt P31460, T191A); assay: MST binding assay, EcoDgoR T191A mutant
Experimental: as §2, §3

[6] = target: EcoDgoR Q173A / dgo cis-acting element (Escherichia coli, UniProt P31460, Q173A); assay: EMSA of EcoDgoR Q173A with dgo cis-acting element; assay type: biochemical; details: Q173A 8 μM, 0.5 mM D-galactonate
Source text: as §1

[7] = target: EcoDgoR D146A / dgo cis-acting element (Escherichia coli, UniProt P31460, D146A); assay: EMSA of EcoDgoR D146A with dgo cis-acting element; assay type: biochemical; details: supplementation of D-galactonate
Source text: as §1

[8] = target: EcoDgoR H195A / dgo cis-acting element (Escherichia coli, UniProt P31460, H195A); assay: EMSA of EcoDgoR H195A with dgo cis-acting element; assay type: biochemical; details: 0.5 mM D-galactonate
Source text: as §1

[9] = target: EcoDgoR R179A / dgo cis-acting element (Escherichia coli, UniProt P31460, R179A); assay: EMSA of EcoDgoR R179A with dgo cis-acting element; assay type: biochemical; details: presence vs absence of 0.5 mM D-galactonate
Source text: as §1

EcoDgoR W181A = EcoDgoR W181A (Escherichia coli, UniProt P31460, W181A); assay: MST binding assay, EcoDgoR W181A mutant
Experimental: as §2, §3

[10] = target: EcoDgoR D184A / dgo cis-acting element (Escherichia coli, UniProt P31460, D184A); assay: EMSA of EcoDgoR D184A with dgo cis-acting element; assay type: biochemical; details: D184A 8 μM, 0.5 mM D-galactonate
Source text: as §1

[11] = target: EcoDgoR S221A / dgo cis-acting element (Escherichia coli, UniProt P31460, S221A); assay: EMSA of EcoDgoR S221A with dgo cis-acting element; assay type: biochemical; details: supplementation of D-galactonate
Source text: as §1

EcoDgoR R102A = EcoDgoR R102A (Escherichia coli, UniProt P31460, R102A); assay: MST binding assay, EcoDgoR R102A mutant
Experimental: as §2, §3

[12] = target: EcoDgoR R102A / dgo cis-acting element (Escherichia coli, UniProt P31460, R102A); assay: EMSA of EcoDgoR R102A with dgo cis-acting element; assay type: biochemical; details: R102A 8 μM, 0.5 mM D-galactonate
Source text: as §1

WT-EcoDgoR = WT-EcoDgoR (Escherichia coli, UniProt P31460); assay: MST binding assay, D-galactonate to wild-type EcoDgoR
Experimental: as §2, §3

[13] = target: EcoDgoR R224A / dgo cis-acting element (Escherichia coli, UniProt P31460, R224A); assay: EMSA of EcoDgoR R224A with dgo cis-acting element; assay type: biochemical; details: 0.5 mM D-galactonate
Source text: as §1

Chain of WT-EcoDgoR (P31460 whole entry): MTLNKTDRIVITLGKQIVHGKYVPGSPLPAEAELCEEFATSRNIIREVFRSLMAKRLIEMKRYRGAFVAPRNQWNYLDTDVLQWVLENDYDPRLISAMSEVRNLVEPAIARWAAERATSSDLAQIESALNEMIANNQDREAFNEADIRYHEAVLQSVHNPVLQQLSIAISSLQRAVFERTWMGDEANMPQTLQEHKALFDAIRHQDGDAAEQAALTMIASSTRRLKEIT
Chain of EcoDgoR / dgo cis-acting element (P31460 whole entry): as above
Chain of EcoDgoR R224A (P31460 whole entry R224A): as the sequence (P31460 whole entry) above, with R224A counted along it
Chain of EcoDgoR W181A (P31460 whole entry W181A): as the sequence (P31460 whole entry) above, with W181A counted along it
Chain of EcoDgoR T191A (P31460 whole entry T191A): as the sequence (P31460 whole entry) above, with T191A counted along it
Chain of EcoDgoR R102A (P31460 whole entry R102A): as the sequence (P31460 whole entry) above, with R102A counted along it
Chain of EcoDgoR D184A / dgo cis-acting element (P31460 whole entry D184A): as the sequence (P31460 whole entry) above, with D184A counted along it
Chain of EcoDgoR R224A / dgo cis-acting element (P31460 whole entry R224A): as the sequence (P31460 whole entry) above, with R224A counted along it
Chain of EcoDgoR Q173A / dgo cis-acting element (P31460 whole entry Q173A): as the sequence (P31460 whole entry) above, with Q173A counted along it
Chain of EcoDgoR S221A / dgo cis-acting element (P31460 whole entry S221A): as the sequence (P31460 whole entry) above, with S221A counted along it
Chain of EcoDgoR H195A / dgo cis-acting element (P31460 whole entry H195A): as the sequence (P31460 whole entry) above, with H195A counted along it
Chain of EcoDgoR W181A / dgo cis-acting element (P31460 whole entry W181A): as the sequence (P31460 whole entry) above, with W181A counted along it
Chain of EcoDgoR R224E / dgo cis-acting element (P31460 whole entry R224E): as the sequence (P31460 whole entry) above, with R224E counted along it
Chain of EcoDgoR R179A / dgo cis-acting element (P31460 whole entry R179A): as the sequence (P31460 whole entry) above, with R179A counted along it
Chain of EcoDgoR T191A / dgo cis-acting element (P31460 whole entry T191A): as the sequence (P31460 whole entry) above, with T191A counted along it
Chain of EcoDgoR D146A / dgo cis-acting element (P31460 whole entry D146A): as the sequence (P31460 whole entry) above, with D146A counted along it
Chain of EcoDgoR R102A / dgo cis-acting element (P31460 whole entry R102A): as the sequence (P31460 whole entry) above, with R102A counted along it
Chain of EcoDgoR H150A / dgo cis-acting element (P31460 whole entry H150A): as the sequence (P31460 whole entry) above, with H150A counted along it
Chain of EcoDgoR H150A (P31460 whole entry H150A): as the sequence (P31460 whole entry) above, with H150A counted along it

Question: Which results are given for `OC[C@H]1OC(O)[C@H](O)[C@@H](O)[C@@H]1O` (stereo partly drawn) [D-glucose]?
Answer: effect on stability of EcoDgoR/DNA complex (EMSA) [1]: not affected significantly; effect on EcoDgoR/DNA complex (EMSA) [1]: didn’t disrupt the formation of stable protein/DNA complexes; effect on DNA bound by EcoDgoR (EMSA) [1]: did not display such effect

Question: With `O=C(O)[C@H](O)[C@@H](O)[C@@H](O)[C@H](O)CO` [D-galactonate] as the molecule, how does the “effect on DNA binding of mutant (EMSA)” value [2] read?
Answer: no significant difference in DNA binding affinity

Question: And the Kd (EcoDgoR R224A)?
Answer: > 50 mM

Question: And the “interaction with D-galactonate (MST)” value (EcoDgoR R224A; R224A mutant)?
Answer: did not interact

Question: And the Kd (EcoDgoR H150A)?
Answer: 4.99 ± 1.02 mM

Question: What about the “effect on DNA binding of mutant (EMSA)” value [3] of the same molecule?
Answer: remain inability to bind DNA

Question: And the “effect on DNA binding of mutant (EMSA)” value [4]?
Answer: restored their DNA binding ability to some extent

Question: What about the “effect on DNA binding of mutant (EMSA)” value [5] of the same molecule?
Answer: remain inability to bind DNA

Question: What about the Kd (EcoDgoR T191A) of the same molecule?
Answer: > 50 mM

Question: What about the “interaction with D-galactonate (MST)” value (EcoDgoR T191A; T191A mutant) of the same molecule?
Answer: did not interact

Question: What about the “effect on DNA binding of mutant (EMSA)” value [6] of the same molecule?
Answer: restored their DNA binding ability to some extent

Question: What about the “effect on DNA binding of mutant (EMSA)” value [7] of the same molecule?
Answer: slightly decreased their ability to bind DNA

Question: What about the “effect on DNA binding of mutant (EMSA)” value [8] of the same molecule?
Answer: remain inability to bind DNA

Question: And the “effect on DNA binding of mutant (EMSA)” value [9]?
Answer: no significant difference in DNA binding affinity

Question: What about the Kd (EcoDgoR W181A) of the same molecule?
Answer: > 50 mM

Question: And the “interaction with D-galactonate (MST)” value (EcoDgoR W181A; W181A mutant)?
Answer: did not interact

Question: And the “effect on DNA binding of mutant (EMSA)” value [10]?
Answer: restored their DNA binding ability to some extent

Question: And the “effect on DNA binding of mutant (EMSA)” value [11]?
Answer: slightly decreased their ability to bind DNA

Question: What about the “effect on stability of EcoDgoR/DNA complex (EMSA)” value [1] of the same molecule?
Answer: decreased the stability of EcoDgoR/DNA complex

Question: And the “effect on EcoDgoR/DNA complex (EMSA)” value [1]?
Answer: didn’t disrupt the formation of stable protein/DNA complexes

Question: And the “effect on DNA bound by EcoDgoR (EMSA)” value [1]?
Answer: relieved DNA bound by EcoDgoR in a concentration-dependent manner

Question: What about the Kd (EcoDgoR R102A) of the same molecule?
Answer: > 50 mM

Question: And the “interaction with D-galactonate (MST)” value (EcoDgoR R102A; R102A mutant)?
Answer: did not interact

Question: And the “effect on DNA binding of mutant (EMSA)” value [12]?
Answer: restored their DNA binding ability to some extent

Question: And the Kd (WT-EcoDgoR; WT EcoDgoR 100 nM, D-galactonate 305 nM to 10 mM)?
Answer: ~0.22 mM and 0.22 mM

Question: And the Kd (WT-EcoDgoR; WT EcoDgoR after EDTA incubation)?
Answer: 30 ± 20.3 mM

Question: And the “effect on DNA binding of mutant (EMSA)” value [13]?
Answer: remain inability to bind DNA
